Results: patent US20200315996A1 (Board of Trustees, Southern Illinois University, priority 2016, published 2020)

Tests used:
MKI67 (Ki67) = experiment: Immunohistochemistry of endometriotic lesions, MKI67 (cell proliferation); type: in vivo, mice; conditions: 3 weeks; for % of MKI67 positive cells/total cells/0.007 mm^2, Stroma: control 13.8 ± 1.4
From the text: (§1) The presence and location of different proteins in the tissues obtained from the recipient mice. Samples of uterine tissue were isolated from the recipient mice, fixed by standard histological methods, and embedded in paraffin. Thin sections (5 μm) of the paraffin-embedded tissues were screened with standard immunohistochemical methods using antibodies to identify the expression of in the uterine tissues.
(§2) Primary antibodies that recognized MKI67 (Ki67), PECAM1 (CD31), ESR1, PGR, p-CHUK (IKK), p-STAT3, NOS2 (iNOS) and PTGS2 (COX2), and Vectastain Elite ABC Kit (# PK-6101), Mouse on Mouse Basic Kit (# BMK-2202, Vector laboratories) or DyLight-conjugated secondary antibody (#711-516-152, Jackson ImmunoResearch Lab) were used to show the presence of the proteins in the tissues, which were examined under microscopes.
(§3) The primary antibodies used in these analyses were: anti-MKI67 (Ki67, 1:200 dilution, 550609, BD Biosciences), anti-PECAM1 (CD31, 1:100 dilution, ab28364, Abcam), anti-ESR1 (1:100 dilution, sc-542, Santa Cruz Biotechnology), anti-PGR (1:200 dilution, RB-9017-P0, Thermo Scientific), anti-p-CHUK (IKK, 1:150 dilution, 2697, Cell Signaling Technology), anti-p-STAT3 (1:50 dilution, 9145, Cell Signaling Technology), anti-NOS2 (iNOS, 1:50 dilution, 610333, BD Biosciences) and anti-PTGS2 (COX2, 1:50 dilution, RM-9121, Thermo Scientific).
(§4) The expression of MKI67, ESR1, PGR, p-CHUK, p-STAT3, NOS2 and PTGS2 proteins in uterine tissues, as determined by immunohistochemical analysis of uterine tissue sections, was semiquantitatively analyzed. Levels of apoptosis were analyzed by TUNEL assay and also semiquantitatively analyzed. Histological sections were obtained from 4 different lesions. For each section, three different areas measuring 0.007 mm^2 were chosen. In each of those areas, the total number of epithelial or stromal cells was counted, as was the number of cells that tested positive for expressing MKI67 (a marker of cellular proliferation), steroid receptors ESR1 and PGR, and inflammatory signaling molecules p-CHUK, p-STAT3, NOS2 and PTGS2 proteins.

apoptosis = experiment: TUNEL assay of endometriotic lesions; type: in vivo, mice; conditions: 3 weeks, control 8.7 ± 1.3
Experimental: The TUNEL assay is another immunohistological method used to show the amount of apoptosis, or programmed cell death, present in the uterine tissues. The TUNEL assay was performed on sections of uterine tissue according to manufacturer's instructions using ApopTag Fluorescein In Situ Apoptosis Detection Kit (# S7160, Millipore). The TUNEL assay, which identifies cells undergoing apoptosis, was semiquantitatively analyzed using areas of 0.02 mm^2 (3 different areas counted from each section, with sections obtained from 4 different lesions), and semiquantitatively analyzed.

ESR1 = experiment: Immunohistochemistry of endometriotic lesions, ESR1; type: in vivo, mice; conditions: 3 weeks; for % of ESR1 positive cells/total cells/0.007 mm^2, Stroma: control 45.6 ± 6.9; for % of ESR1 positive cells/total cells/0.007 mm^2, Epithelium: control 79.1 ± 3.7
From the text: as §1, §2, §3, §4

PGR = experiment: Immunohistochemistry of endometriotic lesions, PGR; type: in vivo, mice; conditions: 3 weeks; for % of PGR positive cells/total cells/0.007 mm^2, Stroma: control 47.2 ± 4.0; for % of PGR positive cells/total cells/0.007 mm^2, Epithelium: control 76.7 ± 7.0
From the text: as §1, §2, §3, §4

p-CHUK (IKK) = experiment: Immunohistochemistry of endometriotic lesions, p-CHUK; type: in vivo, mice; conditions: 3 weeks
From the text: as §4, with “The presence and location of different proteins in the tissues obtained from the recipient mice. Samples of uterine tissue were isolated from the recipient mice, fixed by standard histological methods, and embedded in paraffin. Thin sections (5 μm) of the paraffin-embedded tissues were screened with standard immunohistochemical methods using antibodies to identify the expression of in the uterine tissues. […] The expression” for “The expression”, “semiquantitatively analyzed. […] Histological sections” for “semiquantitatively analyzed. Histological sections”

p-STAT3 = experiment: Immunohistochemistry of endometriotic lesions, p-STAT3; type: in vivo, mice; conditions: 3 weeks; for % of p-STAT3 positive cells/total cells/0.007 mm^2, Stroma: control 11.5 ± 4.4
From the text: as §4, with “The presence and location of different proteins in the tissues obtained from the recipient mice. Samples of uterine tissue were isolated from the recipient mice, fixed by standard histological methods, and embedded in paraffin. Thin sections (5 μm) of the paraffin-embedded tissues were screened with standard immunohistochemical methods using antibodies to identify the expression of in the uterine tissues. […] The expression” for “The expression”, “semiquantitatively analyzed. […] Histological sections” for “semiquantitatively analyzed. Histological sections”

NOS2 (iNOS) = experiment: Immunohistochemistry of endometriotic lesions, NOS2; type: in vivo, mice; conditions: 3 weeks; for % of NOS2 positive cells/total cells/0.007 mm^2, Stroma: control 75.2 ± 4.6
From the text: as §4, with “The presence and location of different proteins in the tissues obtained from the recipient mice. Samples of uterine tissue were isolated from the recipient mice, fixed by standard histological methods, and embedded in paraffin. Thin sections (5 μm) of the paraffin-embedded tissues were screened with standard immunohistochemical methods using antibodies to identify the expression of in the uterine tissues. […] The expression” for “The expression”, “semiquantitatively analyzed. […] Histological sections” for “semiquantitatively analyzed. Histological sections”

recipient mice = experiment: General tolerability in recipient mice (Studies 1 and 2); type: in vivo
From the text: Uterine tissue pieces of B6-GFP mice (donor) were implanted into the peritoneal walls of recipient mice.
The recipient mice continued receiving oral daily niclosamide treatments until mouse pups were born, after which niclosamide treatment was discontinued. Three weeks after the pups were born, on postnatal day (PND) 21, the recipient mice were necropsied and the pups were weaned.

mice = conditions: cited from earlier work
[1] = rats; cited from earlier work
[2] = ORGANIZATION WH, 2002; cited from earlier work
[3] = after 3 weeks of treatment, 100 or 200 mg/kg b.w./day oral

## O=C(Nc1ccc([N+](=O)[O-])cc1Cl)c1cc(Cl)ccc1O [niclosamide, 5-chloro-N-(2-chloro-4-nitrophenyl)-2-hydroxybenzamide]
MKI67 (Ki67); 100 mg/kg b.w./day oral
  % of MKI67 positive cells/total cells/0.007 mm^2, Stroma: 10.9 ± 1.9%
MKI67 (Ki67); 100 mg/kg b.w./day oral, control 61.6 ± 5.9, 100 mg/kg/day
  % of MKI67 positive cells/total cells/0.007 mm^2, Epithelium: 50.1±7.9%
MKI67 (Ki67); 100 mg/kg b.w./day oral, control 61.6 ± 5.9, listed as Niclosamide, 100 mg/kg/day
  % of MKI67 positive cells/total cells/0.007 mm^2, Epithelium: 50.1 ± 7.9%
MKI67 (Ki67); 200 mg/kg b.w./day oral
  % of MKI67 positive cells/total cells/0.007 mm^2, Stroma: 7.9 ± 1.9%
MKI67 (Ki67); 200 mg/kg b.w./day oral, control 61.6 ± 5.9, p < 0.05, 200 mg/kg/day
  % of MKI67 positive cells/total cells/0.007 mm^2, Epithelium: 37.7±7.2%
MKI67 (Ki67); 200 mg/kg b.w./day oral, control 61.6 ± 5.9, p < 0.05, listed as Niclosamide, 200 mg/kg/day
  % of MKI67 positive cells/total cells/0.007 mm^2, Epithelium: 37.7 ± 7.2 %
apoptosis; 100 mg/kg b.w./day oral
  Cell number of TUNEL positive cells/0.02 mm^2: 8.2 ± 1.3 cells/0.02 mm^2
apoptosis; 200 mg/kg b.w./day oral
  Cell number of TUNEL positive cells/0.02 mm^2: 7.8 ± 1.0 cells/0.02 mm^2
ESR1; 100 mg/kg b.w./day oral
  % of ESR1 positive cells/total cells/0.007 mm^2, Stroma: 55.9 ± 5.5%
  % of ESR1 positive cells/total cells/0.007 mm^2, Epithelium: 96.6 ± 2.0%
ESR1; 200 mg/kg b.w./day oral
  % of ESR1 positive cells/total cells/0.007 mm^2, Stroma: 37.7 ± 5.7%
  % of ESR1 positive cells/total cells/0.007 mm^2, Epithelium: 82.6 ± 5.6%
PGR; 100 mg/kg b.w./day oral
  % of PGR positive cells/total cells/0.007 mm^2, Stroma: 58.1 ± 5.2%
  % of PGR positive cells/total cells/0.007 mm^2, Epithelium: 60.4 ± 10.7%
PGR; 200 mg/kg b.w./day oral
  % of PGR positive cells/total cells/0.007 mm^2, Stroma: 50.1 ± 6.9%
  % of PGR positive cells/total cells/0.007 mm^2, Epithelium: 69.9 ± 12.2%
p-CHUK (IKK); 100 mg/kg b.w./day oral, control 83.4 ± 4.7
  % of p-CHUK positive cells/total cells/0.007 mm^2, Stroma: 86.3 ± 4.0%
p-CHUK (IKK); 100 mg/kg b.w./day oral, control 97.9 ± 2.1
  % of p-CHUK positive cells/total cells/0.007 mm^2, Epithelium: 92.3 ± 3.8%
p-CHUK (IKK); 200 mg/kg b.w./day oral, control 83.4 ± 4.7, p < 0.01
  % of p-CHUK positive cells/total cells/0.007 mm^2, Stroma: 56.2 ± 8.3 %
p-CHUK (IKK); 200 mg/kg b.w./day oral, control 97.9 ± 2.1, p < 0.05
  % of p-CHUK positive cells/total cells/0.007 mm^2, Epithelium: 76.7 ± 9.2 %
p-STAT3; 100 mg/kg b.w./day oral
  % of p-STAT3 positive cells/total cells/0.007 mm^2, Stroma: 6.9 ± 1.9%
p-STAT3; 100 mg/kg b.w./day oral, control 54.1 ± 3.9
  % of p-STAT3 positive cells/total cells/0.007 mm^2, Epithelium: 59.0 ± 5.4%
p-STAT3; 200 mg/kg b.w./day oral
  % of p-STAT3 positive cells/total cells/0.007 mm^2, Stroma: 4.1 ± 1.0%
p-STAT3; 200 mg/kg b.w./day oral, control 54.1 ± 3.9, p < 0.001
  % of p-STAT3 positive cells/total cells/0.007 mm^2, Epithelium: 26.4 ± 3.8 %
NOS2 (iNOS); 100 mg/kg b.w./day oral
  % of NOS2 positive cells/total cells/0.007 mm^2, Stroma: 57.8 ± 4.3%
NOS2 (iNOS); 100 mg/kg b.w./day oral, control 99.5 ± 0.4
  % of NOS2 positive cells/total cells/0.007 mm^2, Epithelium: 99.5 ± 0.5%
NOS2 (iNOS); 200 mg/kg b.w./day oral
  % of NOS2 positive cells/total cells/0.007 mm^2, Stroma: 61.9 ± 5.7%
NOS2 (iNOS); 200 mg/kg b.w./day oral, control 99.5 ± 0.4, p < 0.05
  % of NOS2 positive cells/total cells/0.007 mm^2, Epithelium: 86.2 ± 5.9 %
Recipient mice; [3]
  adverse effects including weight loss in recipient mice: no obvious adverse effects
  estrous cyclicity by vaginal cytology: observed in all mice
Recipient mice; daily 200 mg/kg b.w. for three (Study 1) to four weeks (Study 2)
  adverse reactions, such as weight loss or changes in behavior in the recipient mice: did not cause any adverse reactions
mice
  LD50, acute toxicity: > 1500 mg/kg b.w.
[1]
  plasma half-life: 7 h
[2]
  water solubility: < 20 µM
